In PMC11279727, “Bioprospecting, Synergistic Antifungal and Toxicological Aspects of the Hydroxychalcones and Their Association with Azole Derivates against Candida spp. for Treating Vulvovaginal Candidiasis” (Pharmaceutics, 2024):
In brackets after ≈: the same amount, converted by molar mass.

Legend:
[1] = system: Candida tropicalis ATCC 750; assay: Combinatorial antifungal activity (checkerboard); assay type: cell-based; settings: drug alone in checkerboard; for MIC80 (individual): C. tropicalis; for MIC80: Candida tropicalis, ATCC750, C. tropicalis, read-out: MIC80 (individual)
From the text: (§1) Candida albicans ATCC 90028, Candida tropicalis ATCC 750, and Candida krusei ATCC 6258 were used. These species were selected for these assays because C. albicans is the most prevalent etiological agent in fungal infections caused by the genus Candida, and C. tropicalis is the most frequent non-albicans species. C. krusei was used to represent the species most resistant to azole drugs. Thus, 2-HC and 3′-HC were combined with FCZ and CTZ and associated with each other. Their combinatorial antifungal activity was determined through the checkerboard method using 96-well microplates, according to Bellio et al. (2021). […] Microplates were incubated at 37 °C for 24 h. […] The negative control was only the culture medium, and the positive control was composed of microorganisms and the culture medium. […] From this, it was calculated the fractional inhibitory concentration (FIC) and the fractional inhibitory concentration index (FICI) of each well of the interface as follows: […]

[2] = system: Candida krusei ATCC 6258; assay: Combinatorial antifungal activity (checkerboard); assay type: cell-based; settings: Pichia kudriavzevii, ATCC6258; C. krusei, drug alone in checkerboard; read-out: MIC80 (individual)
From the text: as §1

[3] = system: Candida albicans ATCC 90028; assay: Combinatorial antifungal activity (checkerboard); assay type: cell-based; settings: ATCC90028, C. albicans, drug alone in checkerboard, read-out: MIC80 (individual)
From the text: as §1

[4] = system: Candida tropicalis ATCC 750; assay: In vitro susceptibility, CLSI M27-A3 broth microdilution (MIC/MFC); assay type: cell-based; settings: for MFC / MIC50: ATCC750, C. tropicalis ATCC 750; for MIC: ATCC750, C. tropicalis ATCC 750, 37 °C 24 h
Experimental: (§2) Susceptibility tests were performed according to the M27-A3 protocol proposed by the Clinical & Laboratory Standards Institute (CLSI) (2008). Briefly, 2-HC and 3′-HC were solubilized in dimethyl sulfoxide at 12.500 g/L and stored at −80 °C. […] The final concentration of 2-HC and 3′-HC in the RPMI medium was 0.24–125.0 mg/L. Dilutions of the compounds were performed in a 96-well microplate at a total volume of 100 μL/well. Fungal suspensions were prepared in 0.85% NaCl and were adjusted to a final concentration of 5 × 10^3 cells/mL. Then, 100 μL of the fungal suspension was added to all wells. Microplates were incubated at 37 °C for 24 h. […] Minimal inhibitory concentration (MIC) was considered the lowest concentration of the drug that inhibited the visible growth of yeast. […] Samples were processed in triplicate, and each experiment was carried out in triplicate.

[5] = system: Candida glabrata ATCC 90030; assay: as above; assay type: cell-based; settings: Nakaseomyces glabratus, ATCC90030; for MFC: C. glabrata ATCC 90030; for MIC: C. glabrata ATCC 90030, 37 °C 24 h
Experimental: as §2

[6] = system: Candida krusei ATCC 6258; assay: as above; assay type: cell-based; settings: Pichia kudriavzevii, ATCC6258; for MFC / MIC50: C. krusei ATCC 6258; for MIC: C. krusei ATCC 6258, 37 °C 24 h
Experimental: as §2

[7] = system: Candida parapsilosis ATCC 22019; assay: as above; assay type: cell-based; settings: Lodderomyces parapsilosis, ATCC22019; for MFC: C. parapsilosis ATCC 22019; for MIC: C. parapsilosis ATCC 22019, 37 °C 24 h
Experimental: as §2

[8] = system: Candida albicans ATCC 90028; assay: as above; assay type: cell-based; settings: for MFC / MIC50: ATCC90028, C. albicans ATCC 90028; for MIC: ATCC90028, C. albicans ATCC 90028, 37 °C 24 h
Experimental: as §2

[9] = system: C. albicans ATCC 90028; assay: Therapeutic efficacy in Galleria mellonella infected with C. albicans; assay type: in vivo; settings: for efficacy in the antifungal activity: substances alone at MIC values and LCs, infected larvae
[10] = system: C33A cell line (uterine cervical carcinoma epithelium); assay: In vitro cytotoxicity (resazurin, 72 h); settings: Homo sapiens, C-33-A, 72 h
Experimental: (§3) Cytotoxicity assays were performed on the C33A cell line (uterine cervical carcinoma epithelium) obtained from the ATCC (Manassas, VA, USA). 5 × 10^4 cells/well were added using RPMI medium with 10% fetal bovine serum into 96-well plates. Cells were incubated at 36.5 °C with 5% CO2 for 24 h to form a cell monolayer. 2-HC and 3′-HC were analyzed in range concentrations from 0.1–75 μg/mL. In combinations, 2-HC and 3′-HC were analyzed from 0.48–31.25 mg/L and 0.48–62.5 mg/L. Cells were exposed for 72 h, and after, cytotoxicity was assessed by adding 100 μL of resazurin (50 μM) and measured by a microplate reader at 570 nm–600 nm. A negative control with untreated cells (100% living cells) and a positive control (DMSO 40% to induce cell death) were also used. The results were evaluated in triplicate independent. […] Selective index (SI) was calculated using SI=IC50/MIC50 .

[11] = In vitro cytotoxicity (resazurin, 72 h); settings: human
Experimental: as §3

[12] = system: Paracoccidioides brasiliensis; parameters: method as in PMID 34790584; settings: cited from earlier work
[13] = system: Mycobacterium tuberculosis and Paracoccidioides brasiliensis mixed biofilm; parameters: method as in PMID 34790584; settings: cited from earlier work
[14] = system: Mycobacterium tuberculosis; parameters: method as in PMID 34790584; settings: cited from earlier work
[15] = system: C33A cell line; settings: in the concentration ranges tested in the combinations
Experimental: as §3

| Structure (SMILES) | MIC80 (individual) [1] [µg/mL] | MIC80 [1] [µg/mL] | MIC80 [2] [µg/mL] | MIC80 [3] [µg/mL] | MFC [4] [µg/mL] | MIC50 [4] [µg/mL] | MIC [4] [µg/mL] | MFC [5] [µg/mL] | MIC [5] [µg/mL] | MFC [6] [µg/mL] | MIC50 [6] [µg/mL] | MIC [6] [µg/mL] | MFC [7] [µg/mL] | MIC [7] [µg/mL] | MFC [8] [µg/mL] | MIC50 [8] [µg/mL] | MIC [8] [µg/mL] | efficacy in the antifungal activity [9] | IC50 [10] [µg/mL] | viability at 72 h, 9.38 mg/L [11] [%] | also measured |
| --- | --- | --- | --- | --- | --- | --- | --- | --- | --- | --- | --- | --- | --- | --- | --- | --- | --- | --- | --- | --- | --- |
| O=C(/C=C/c1ccccc1O)c1ccccc1 [2-HC, 2-hydroxychalcone] | 31.25 | 62.5 | 31.2 | 31.2 | > 125 | 7.81 (≈ 34.8 µM) | 31.3 (≈ 140 µM) | > 125 | 15.6 (≈ 69.6 µM) | 125 (≈ 557 µM) | 15.6 (≈ 69.7 µM) | 7.8 (≈ 34.8 µM) | 15.6 (≈ 69.6 µM) | 7.8 (≈ 34.8 µM) | > 125 | 15.6 (≈ 69.7 µM) | 31.3 (≈ 140 µM) | did not demonstrate efficacy | 13 | > 80 |  |
| O=C(/C=C/c1ccccc1)c1cccc(O)c1 [3′-HC, 3′-hydroxychalcone] | 31.25 | 62.5 | 15.6 | 31.2 | 125 (≈ 557 µM) | 7.81 (≈ 34.8 µM) | 31.3 (≈ 140 µM) | 31.3 (≈ 140 µM) | 7.8 (≈ 34.8 µM) | 31.3 (≈ 140 µM) | 7.81 (≈ 34.8 µM) | 7.8 (≈ 34.8 µM) | 31.3 (≈ 140 µM) | 15.6 (≈ 69.6 µM) | > 125 | 15.6 (≈ 69.7 µM) | 31.3 (≈ 140 µM) | did not demonstrate efficacy | 11.9 | > 80 | MIC [12]: 0.97 µg/mL (≈ 4.33 µM); biofilm degradation [13]: above 50%; MIC [14]: 7.8 µg/mL (≈ 34.8 µM) |
| C[C@@H]1[C@H](O)[C@@H](C)/C=C/C=C/C=C/C=C/C=C/C=C/C=C/[C@H](O[C@@H]2O[C@H](C)[C@@H](O)[C@H](N)[C@@H]2O)C[C@@H]2O[C@](O)(C[C@@H](O)C[C@@H](O)[C@H](O)CC[C@@H](O)C[C@@H](O)CC(=O)O[C@H]1C)C[C@H](O)[C@H]2C(=O)O [AMB, amphotericin B, reference compound] |  |  |  |  | 1 (≈ 1.08 µM) |  | 0.05 (≈ 0.0541 µM) | 0.5 (≈ 0.541 µM) | 0.4 (≈ 0.433 µM) | 1 (≈ 1.08 µM) |  | 0.1 (≈ 0.108 µM) | 0.3 (≈ 0.325 µM) | 0.1 (≈ 0.108 µM) | 1 (≈ 1.08 µM) |  | 0.2 (≈ 0.216 µM) |  |  |  |  |
| Clc1ccccc1C(c1ccccc1)(c1ccccc1)n1ccnc1 [CTZ, clotrimazole, reference compound] |  | 0.03 | 0.13 | 0.03 | > 4 |  | 0.01 (≈ 0.029 µM) | > 2 | 0.004 (≈ 0.0116 µM) | > 4 |  | 0.06 (≈ 0.174 µM) | 0.1 (≈ 0.29 µM) | 0.03 (≈ 0.087 µM) | > 4 |  | 0.01 (≈ 0.029 µM) |  |  |  | cytotoxicity [15]: did not present cytotoxicity |
| OC(Cn1cncn1)(Cn1cncn1)c1ccc(F)cc1F [FCZ, Fluconazole, reference compound] |  | 0.5 | 32 | 0.5 | > 64 |  | 0.5 (≈ 1.63 µM) | > 64 | 0.5 (≈ 1.63 µM) | 128 (≈ 418 µM) |  | 32 (≈ 104 µM) | 2 (≈ 6.53 µM) | 1 (≈ 3.27 µM) | > 64 |  | 0.25 (≈ 0.816 µM) |  |  |  | health indexes vs infection control group ([9]; larvae infected with C. albicans ATCC 90028, all doses, FCZ 350 mg/L): statistically different from the infection control group; survival curves vs infection control group ([9]; larvae infected with C. albicans ATCC 90028, treated 1 h after infection, five days, FCZ 350 mg/L): statistically different from the infection control group; cytotoxicity [15]: did not present cytotoxicity |
